{
  "source": "paper PMC9870305",
  "about": "“Efficacy of ultra-short, response-guided sofosbuvir and daclatasvir therapy for hepatitis C in a single-arm mechanistic pilot study” (eLife, 2023)",
  "key": {"[1]": {"experiment": "Plasma pharmacokinetics, naïve pooled non-compartmental analysis (days 0 and 28)", "assay_type": "in vivo, human", "parameters": "AUClast / AUC(0-t) / AUCINF / AUC(0-inf): concentration or dose not given beside the values", "settings": "for drug accumulation: between day 0 and 28; for AUC(0-t) / AUClast: to 8 hours for SOF, 24 hours for GS-331007 and DCV; for half-life: read-out: t1/2, terminal elimination half-life (converted); for AUC(0-inf): po; for AUC(0-inf) / AUCINF: extrapolated to infinity", "description": "(§1) In addition, intensive drug level sampling was conducted in a subset of 40 participants, who were sequentially invited to join an ancillary PK study. In this subgroup, five samples were collected in each participant after the first dose of SOF/DCV and at day 28, according to one of two randomly assigned sampling schedules (A and B). In sampling schedule A, drug levels were measured at 0.5-, 2-, 4-, 6- and 24-hr post-dose; in sampling schedule B, drug levels were measured at 1-, 3-, 5-, 8- and 24-hr post-dose.\n(§2) Drug quantification was performed using liquid chromatography-tandem mass spectrometer at Mahidol Oxford Tropical Medicine Research Unit, Bangkok. Two separate analytical assays were developed and validated to quantify SOF plus its metabolite GS-331007, and DCV, respectively. Full methodological details of the PK/PD analysis are provided in Appendix 1.\nIntensive drug levels of SOF, its metabolite GS-331007, and DCV from the subset of 40 patients at days 0 and 28, together with any EOT samples at day 28, were analysed using non-compartmental analysis in PKanalix version 2020R1 ([Lixoft, 2022]). Two separate analyses were performed to characterise the pharmacokinetic properties of the study drugs.\nIn the first, naïve pooled analyses were performed separately on data from days 0 and 28 (not including EOT samples) to derive median pharmacokinetic parameters at each day. In these analyses, the median concentration at each protocol time was calculated. Individual concentration measurements below the LLOQ were set to LLOQ/2 when calculating the median values. It was assumed that the participants had no drug concentrations at time 0.\nSofosbuvir and GS-331007 were extracted from 100 µL of plasma using phospholipid removal in the 96-well plate format (Phree, 8E-S133-TGB, Phenomenex), followed by separation on a Gemini, 50 mm × 2.0 mm I.D. 5 µm, column (00B-4435-B0, Phenomenex). Quantification was performed using selected reaction monitoring for the transitions m/z 530.2–>243.2 (sofosbuvir), 536.2–>243.1 (isotope-labelled internal standard for sofosbuvir), 261.3–>113.1 (GS-331007), and 265.3–>113.1 (isotope-labelled internal standard for GS-331007).\nThe lower limit of quantification (LLOQ) was set to 1.95 ng/mL for sofosbuvir and 20.5 ng/mL for GS-331007. A total of 9 quality control samples (3×low, 3×mid and 3×high concentration) were analysed for each analyte within each batch of clinical samples (96-well plate), resulting in an accuracy of 2.81–2.93% RSE for sofosbuvir and 2.19–3.50% RSE for GS-331007.\nDCV was extracted from 100 µL of plasma using supported liquid extraction in the 96-well plate format (ISOLUTE SLE +96 well plate, 820–0200 P01, Biotage), followed by separation on a Gemini, 50 mm × 2.0 mm I.D. 5 µm, column (00B-4435-B0, Phenomenex). Quantification was performed using selected reaction monitoring for the transitions m/z 739.5–>339.3 (DCV) and 747.5–>339.3 (isotope-labelled internal standard for DCV). The LLOQ was set to 1.64 ng/mL for DCV. A total of 9 quality control samples (3×low, 3×mid and 3×high concentration) were analysed within each batch of clinical samples (96-well plate), resulting in an accuracy of 2.46–2.62% RSE for DCV.\nMaximum concentration (Cmax) and time to reach maximum concentration (tmax) were derived directly from the observed drug concentrations. The software’s automatic slope calculator was used to derive the elimination rate (λ) (adjusted R2 value with uniform weighting) and terminal elimination half-life (t1/2). The drug exposure measured as area under the concentration-time curve (AUC) was calculated for each drug using the trapezoidal method. Linear interpolation was used for acceding concentrations and log-linear interpolation for descending concentrations. For the individual analysis, the linear method was used for all measurements due to accumulation between the day 0 and day 28 measurements. […]"}, "[2]": {"experiment": "Plasma drug exposure, individual non-compartmental analysis (days 0 and 28 pooled)", "assay_type": "in vivo, human", "parameters": "AUC(0-t) / AUClast: concentration or dose not given beside the values", "settings": "median (5th-95th percentile); for AUC(0-t): human", "description": "as §1, §2\nIn the second analysis, data from days 0 and 28 were pooled for each individual. […] The mean value of drug concentrations was used if patients had two or more samples taken at the same time point. These derived individual drug exposures were used to evaluate the relationship between drug exposure and therapeutic outcome. It was assumed that the participants had no drug concentrations at time 0. In this analysis, the first measurement below LLOQ in a series of LLOQ samples was imputed as LLOQ/2 and the later measurements were ignored. In both approaches, SOF samples taken at ≥24 hr post-dose were excluded. […] In addition, outcome variables and the relationship between outcome variables and drug exposure were evaluated. Additional detail of the PK/PD analysis is provided in Appendix 1.\nMaximum concentration (Cmax) and time to reach maximum concentration (tmax) were derived directly from the observed drug concentrations. The software’s automatic slope calculator was used to derive the elimination rate (λ) (adjusted R2 value with uniform weighting) and terminal elimination half-life (t1/2). The drug exposure measured as area under the concentration-time curve (AUC) was calculated for each drug using the trapezoidal method. Linear interpolation was used for acceding concentrations and log-linear interpolation for descending concentrations. For the individual analysis, the linear method was used for all measurements due to accumulation between the day 0 and day 28 measurements. Both the AUC to the last time point (AUClast, 8 hours for SOF and 24 hours for GS-331007 and DCV) and AUC to infinity (AUCinf) were calculated.\nTwo different sampling schedules were used to collect pharmacokinetic samples on day 0 and day 28, resulting in an overlapping sampling profile overall. Therefore, data collected within an individual on a specific day was not dense enough to justify a non-compartment analysis. […] Two separate pharmacokinetic analyses were carried out. A naïve-pooled analysis was performed separately conducted on day 0 and 28 data. […] Therefore, a second analysis was performed in which the data from day 0 and 28 were pooled for each individual. […] However, the individual analysis should still generate median exposure values for each patient, which can be linked with treatment outcome. Another drawback is that no pre-dose samples were collected."}, "[3]": {"settings": "cited from earlier work; for dose proportionality of AUC: dose range of 200–1200 mg, ref Smolders et al., 2019"}, "[4]": {"settings": "individual analysis, all patients (n=37)"}},
  "note": "Like-named read-outs stand apart in the source and are kept apart here.",
  "data": [
    {"smiles": "COC(=O)N[C@H](C(=O)N1CCC[C@H]1c1nc(-c2ccc(-c3ccc(-c4c[nH]c([C@@H]5CCCN5C(=O)[C@@H](NC(=O)OC)C(C)C)n4)cc3)cc2)c[nH]1)C(C)C", "note": "[Daclatasvir, daclatasvir]", "values": [
      {"measurement": "drug accumulation", "setting": "[1]", "value": "Drug accumulation was observed"},
      {"measurement": "Cmax", "setting": "[1]; human, oral, Day 28, plasma, read-out: Cmax", "value": 1110, "unit": "ng/mL"},
      {"measurement": "AUC(0-t)", "setting": "[1]; human, plasma, oral, Day 0", "value": 11400, "unit": "ng·h/mL"},
      {"measurement": "half-life", "setting": "[1]; human, plasma, oral, Day 28", "value": 8.18, "unit": "h"},
      {"measurement": "AUC(0-t)", "setting": "[1]; human, plasma, oral, Day 28", "value": 12400, "unit": "ng·h/mL"},
      {"measurement": "half-life", "setting": "[1]; human, plasma, oral, Day 0", "value": 7.31, "unit": "h"},
      {"measurement": "tmax", "setting": "[1]; human, plasma, oral, Day 0, read-out: tmax", "value": 3, "unit": "h"},
      {"measurement": "AUC(0-inf)", "setting": "[1]; human, plasma, Day 0", "value": 12800, "unit": "ng·h/mL"},
      {"measurement": "AUC(0-inf)", "setting": "[1]; human, plasma, Day 28", "value": 14400, "unit": "ng·h/mL"},
      {"measurement": "Cmax", "setting": "[1]; human, Day 0, plasma, oral SOF 400 mg + DCV 60 mg, read-out: Cmax", "value": 1170, "unit": "ng/mL"},
      {"measurement": "AUC(0-t)", "setting": "[2]; plasma, oral, 4-week cures (n=15), read-out: Median AUClast", "value": 13000, "unit": "ng·h/mL"},
      {"measurement": "AUC(0-t)", "setting": "[2]; plasma, oral, 4-week failures (n=8), read-out: Median AUClast", "value": 13200, "unit": "ng·h/mL"},
      {"measurement": "AUC(0-t)", "setting": "[2]; plasma, oral, 8-week cures (n=14), read-out: Median AUClast", "value": 14200, "unit": "ng·h/mL"},
      {"measurement": "AUC(0-t)", "setting": "[2]; plasma, oral, individual analysis, all patients (n=37), read-out: AUClast", "value": 9770, "unit": "ng·h/mL"}
    ]},
    {"smiles": "C[C@@]1(F)[C@H](O)[C@@H](CO)O[C@H]1n1ccc(=O)[nH]c1=O", "note": "[GS-331007]", "values": [
      {"measurement": "t1/2, terminal elimination half-life", "setting": "[1]; Day 0", "value": 9.20, "unit": "h"},
      {"measurement": "tmax", "setting": "[1]; Day 0", "value": 3.00, "unit": "h"},
      {"measurement": "Cmax", "setting": "[1]; Day 0, plasma, oral SOF 400 mg + DCV 60 mg", "value": 988, "unit": "ng/mL"},
      {"measurement": "AUCINF", "setting": "[1]; Day 0", "value": "12,700 h×ng/mL"},
      {"measurement": "AUClast", "setting": "[1]; Day 0", "value": "10,500 h×ng/mL"},
      {"measurement": "t1/2, terminal elimination half-life", "setting": "[1]; Day 28", "value": 12.4, "unit": "h"},
      {"measurement": "tmax", "setting": "[1]; Day 28", "value": 4.00, "unit": "h"},
      {"measurement": "Cmax", "setting": "[1]; Day 28, plasma", "value": "1,230 ng/mL"},
      {"measurement": "AUCINF", "setting": "[1]; Day 28", "value": "20,400 h×ng/mL"},
      {"measurement": "AUClast", "setting": "[1]; Day 28", "value": "14,600 h×ng/mL"},
      {"measurement": "drug accumulation", "setting": "[1]", "value": "Drug accumulation was observed"},
      {"measurement": "dose proportionality of AUC", "setting": "[3]", "value": "near dose proportional"},
      {"measurement": "Median AUClast", "setting": "[2]; 4-week cures (n=15)", "value": "11,700 (8420–14,100) h×ng/ml"},
      {"measurement": "Median AUClast", "setting": "[2]; 4-week failures (n=8)", "value": "15,100 (9240–19,700) h×ng/ml"},
      {"measurement": "Median AUClast", "setting": "[2]; 8-week cures (n=14)", "value": "14,000 (10,200–17,400) h×ng/ml"},
      {"measurement": "AUClast", "setting": "[2]; [4]", "value": "3,430 (2,200-4,720) h×ng/mL"}
    ]},
    {"smiles": "CC(C)OC(=O)[C@H](C)N[P@](=O)(OC[C@H]1O[C@@H](n2ccc(=O)[nH]c2=O)[C@](C)(F)[C@@H]1O)Oc1ccccc1", "note": "[Sofosbuvir, sofosbuvir]", "values": [
      {"measurement": "tmax", "setting": "[1]; Day 0", "value": 1.00, "unit": "h"},
      {"measurement": "half-life", "setting": "[1]; human, in vivo, Day 0", "value": 0.67, "unit": "h"},
      {"measurement": "AUC(0-t)", "setting": "[1]; human, in vivo, Day 0", "value": 1550, "unit": "ng·h/mL"},
      {"measurement": "half-life", "setting": "[1]; human, in vivo, Day 28", "value": 0.65, "unit": "h"},
      {"measurement": "AUC(0-t)", "setting": "[1]; human, in vivo, Day 28", "value": 1600, "unit": "ng·h/mL"},
      {"measurement": "AUC(0-inf)", "setting": "[1]; human, in vivo, Day 0", "value": 1550, "unit": "ng·h/mL"},
      {"measurement": "AUC(0-inf)", "setting": "[1]; human, in vivo, Day 28", "value": 1600, "unit": "ng·h/mL"},
      {"measurement": "Cmax", "setting": "[1]; human, in vivo, Day 0, plasma, oral SOF 400 mg + DCV 60 mg, read-out: Cmax", "value": 1320, "unit": "ng/mL"},
      {"measurement": "Cmax", "setting": "[1]; human, in vivo, Day 28, plasma, read-out: Cmax", "value": 1070, "unit": "ng/mL"},
      {"measurement": "dose proportionality of AUC", "setting": "[3]", "value": "near dose proportional"},
      {"measurement": "half-life", "setting": "[3]; ref de Kanter et al., 2014", "value": "less than 1 hr"},
      {"measurement": "AUC(0-t)", "setting": "[2]; in vivo, 4-week cures (n=15), read-out: Median AUClast", "value": 2360, "unit": "ng·h/mL"},
      {"measurement": "AUC(0-t)", "setting": "[2]; in vivo, 4-week failures (n=8), read-out: Median AUClast", "value": 2220, "unit": "ng·h/mL"},
      {"measurement": "AUC(0-t)", "setting": "[2]; in vivo, 8-week cures (n=14), read-out: Median AUClast", "value": 2120, "unit": "ng·h/mL"},
      {"measurement": "AUClast", "setting": "[2]; [4]", "value": "1,140 (598-2,150) h×ng/mL"}
    ]}
  ]
}
